Results on one compound are retold here after patent US20240165089A1, “METHOD FOR TREATING MYOPIA WITH VINPOCETINE” (EYE HOSPITAL, WENZHOU MEDICAL UNIVERSITY, priority 2021, published 2024).

The subject of series [1] is form deprivation myopia model of guinea pigs. Kind of series: FDM guinea pig model, subconjunctival injection, salmeterol/tiotropium/vinpocetine. Conditions: FDM, vinpocetine 1 μM alone, subconjunctival, 2 weeks. The text has this:
The form deprivation myopia model of guinea pigs described in the present invention was used to evaluate the efficacy. […] On the first day of the experiment, guinea pigs were subjected to form deprivation at 8 a.m. using a mask method, with the right eye covered (experimental eye) and the left eye uncovered (contralateral eye). Starting from the day of modeling, solvents or drugs for the corresponding groups were given to the experimental eyes at 9-10 a.m. every day by eyeball subconjunctival injection at an injection volume of 100 μL, once a day for 2 weeks. The refraction and axial parameters of the animals were detected before the start of the efficacy experiment and at the end of the experiment. All data collection and processing methods were the same as in other embodiments of the present invention. The statistical basis was the difference between the experimental eye and the contralateral eye of the same subject individual.

In series [2] the test system is guinea pigs. Put plainly: safety observation during local administration to young guinea pigs. It counts as in vivo, guinea pig. The text has this: three-week-old tricolor guinea pigs (both male and female, simulating humans aged 3-26 years old) were used and raised in the experimental animal room of Wenzhou Medical University in a 12-hour light (400-500 lux)/12-hour dark environment with free access to water and food. The myopia model adopted monocular form deprivation (FD) and lens induction (LI) modeling methods. […] In the lens induction group, a −4D lens was fixed in front of the right eye of the animal, and the left eye obtained normal vision. For the above animals, the lenses were cleaned twice a day to prevent the lenses from blurring. The animals in the experimental group were administrated at 9:00-9:30 am every day. […] The administration process for each animal was controlled in about 10 seconds. Administration began on the day of modeling, and was continuous for 2 weeks for the form deprivation group and was continuous for 1 week for the lens induction group. This experiment has been reviewed by the Experimental Animal Ethics Committee of Wenzhou Medical University.

The conditions of series [3]: rats; cited from earlier work.

With `CCOC(=O)C1=C[C@]2(CC)CCCN3CCc4c(n1c1ccccc41)[C@@H]32` [vinpocetine], the “refraction change towards negative, axial length elongation and vitreous chamber depth increase vs negative control” value in series [1] was “significantly inhibited”. Also, the “common clinical adverse reactions or toxic manifestations such as weight loss” value in series [2] (guinea pig, in vivo) is given as “no individual was observed to have common clinical adverse reactions or toxic manifestations”. Further, the allergic phenomenon result in series [2] (local administration of vinpocetine) is “no allergic phenomenon”. For the same compound, in series [2] (local administration of vinpocetine to young guinea pigs), the “changes in the pupil size of the test eyes” value is listed as “No significant changes”. In addition, the ocular abnormalities result in series [2] (vinpocetine group, local administration) was “No ocular abnormalities”. In series [3], the oral bioavailability is 52%.
